For assay [1], the target named is T1, Adenosine receptor A2b (Homo sapiens, UniProt P29275).
T1 sequence (P29275 whole entry): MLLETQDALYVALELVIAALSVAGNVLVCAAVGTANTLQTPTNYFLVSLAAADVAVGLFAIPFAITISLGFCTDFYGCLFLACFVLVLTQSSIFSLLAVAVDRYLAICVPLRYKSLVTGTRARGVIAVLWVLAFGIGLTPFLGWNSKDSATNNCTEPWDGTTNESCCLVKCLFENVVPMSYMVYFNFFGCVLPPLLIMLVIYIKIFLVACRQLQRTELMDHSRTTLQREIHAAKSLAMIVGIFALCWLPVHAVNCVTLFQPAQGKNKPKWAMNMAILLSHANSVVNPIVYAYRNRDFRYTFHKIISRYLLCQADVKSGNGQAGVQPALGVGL
Put plainly: Antagonist activity at human adenosine 2B receptor overexpressed in HEK293 cells preincubated for 0.5 hrs followed by NECA stimulation by GloSensor cAMP assay. Type of assay: functional, cell-based. For orientation: cAMP levels reflect the balance of adenylyl cyclase and phosphodiesterase activity.

The target of assay [2] is T2, Adenosine receptor A2a (Homo sapiens, UniProt P29274). The assay is described as follows: Antagonist activity at human adenosine 2A receptor overexpressed in HEK293 cells preincubated for 0.5 hrs followed by NECA stimulation by GloSensor cAMP assay. Type of assay: functional, cell-based.
The species entered for assay [3] is Homo sapiens. The assay is described as follows: Selectivity ratio of IC50 for antagonist activity at human adenosine 2A receptor overexpressed in HEK293 cells to IC50 for antagonist activity at human adenosine 2B receptor overexpressed in HEK293 cells. The class given is cell-based.
For assay [4], the target named is T2, Adenosine receptor A2a. Put plainly: Antagonist activity at adenosine 2A receptor (unknown origin).
For assay [5], the target named is T1, Adenosine receptor A2b. The assay is described as follows: Antagonist activity at adenosine 2B receptor (unknown origin). The class given is functional.

T2 sequence (P29274 whole entry): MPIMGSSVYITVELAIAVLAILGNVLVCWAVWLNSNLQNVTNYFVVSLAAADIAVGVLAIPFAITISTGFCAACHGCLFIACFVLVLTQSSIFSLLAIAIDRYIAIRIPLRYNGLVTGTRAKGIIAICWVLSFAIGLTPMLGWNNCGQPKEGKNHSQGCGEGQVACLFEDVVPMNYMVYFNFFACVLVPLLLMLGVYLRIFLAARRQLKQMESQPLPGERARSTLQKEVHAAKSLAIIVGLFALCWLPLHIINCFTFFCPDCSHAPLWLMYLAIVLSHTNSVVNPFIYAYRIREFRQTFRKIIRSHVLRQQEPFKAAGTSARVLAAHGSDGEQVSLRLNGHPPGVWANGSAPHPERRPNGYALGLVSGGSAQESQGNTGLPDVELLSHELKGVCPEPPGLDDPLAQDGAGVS

As a reminder, the IC50 is the point on the concentration scale where inhibition reaches its midpoint. In the case of `Cc1c(C#N)cccc1-c1cc(-c2cn(Cc3cnc4ccccn34)nn2)nc(N)n1`, the IC50 in assay [1] and in assay [2] was > 100000 nM each time.

For `COc1ccc2[nH]cc(Cn3cc(-c4cc(-c5cccc(C#N)c5C)nc(N)n4)nn3)c2c1`, inhibition in assay [1] was half-maximal at 44.7 nM (IC50).

With `Cc1c(C#N)cccc1-c1cc(-c2cn(Cc3c[nH]c4cc(S(C)(=O)=O)ccc34)nn2)nc(N)n1`, in assay [3], the Ratio IC50 came to 127. Further, the IC50 came out at 3.4 nM in assay [1] and 431 nM in assay [2].

Turning to `COc1ccc2c(Cn3cc(-c4cc(-c5cccc(C#N)c5C)nc(N)n4)nn3)c[nH]c2c1`, in assay [3], the Ratio IC50 is 4.8. Besides, the IC50 in assay [1] is 27.6 nM; in assay [2] it was 133 nM.

For the compound `Cc1c(C#N)cccc1-c1cc(-c2cn(Cc3c[nH]c4ccc(S(C)(=O)=O)cc34)nn2)nc(N)n1`, the Ratio IC50 in assay [3] came out at 1.9. Besides, the IC50 in assay [1] was 9.7 nM; in assay [2] it was 18.3 nM.

For `Cc1c(C#N)cccc1-c1cc(-c2cn(Cc3c[nH]c4ncccc34)nn2)nc(N)n1`, the Ratio IC50 in assay [3] stood at 10.5. The IC50 in assay [1] was determined as 215 nM; in assay [2] it was 2260 nM.

On to `COC(=O)c1ccc2c(Cn3cc(-c4cc(-c5cccc(C#N)c5C)nc(N)n4)nn3)c[nH]c2c1`, for which the figures for the half-inhibitory concentration (IC50) in assay [1] and in assay [2] were 97.7 nM and > 100000 nM, respectively.

Take `Cc1c(C#N)cccc1-c1cc(-c2cn(Cc3c[nH]c4ccc(F)cc34)nn2)nc(N)n1`: the Ratio IC50 in assay [3] is 4.4. The IC50 in assay [1] came out at 14.3 nM; in assay [2] it was 63.3 nM.

As for `Cc1c(C#N)cccc1-c1cc(-c2cn(Cc3n[nH]c4ccccc34)nn2)nc(N)n1`, the Ratio IC50 in assay [3] worked out at 3.1. The IC50 in assay [1] stood at 41.7 nM; in assay [2], 129 nM.

For `Cc1c(C#N)cccc1-c1cc(-c2cn(Cc3csc4ccccc34)nn2)nc(N)n1`, the Ratio IC50 in assay [3] worked out at 0.3. For the same compound, the IC50 in assay [1] was determined as 131 nM; in assay [2] it was 34.8 nM.

Consider `Cc1c(C#N)cccc1-c1cc(-c2cn(Cc3c[nH]c4c(Cl)cccc34)nn2)nc(N)n1`, for which the Ratio IC50 in assay [3] is 1.1. For the same compound, the IC50 in assay [1] is 1080 nM; in assay [2], 1140 nM.

With `Cc1c(C#N)cccc1-c1cc(-c2cn(Cc3cccc4cc[nH]c34)nn2)nc(N)n1`, the IC50 in assay [1] is > 100000 nM; in assay [2] it was 7860 nM.

In assay [1], `Cc1c(C#N)cccc1-c1cc(-c2cn(Cc3c[nH]c4cc(OC5CCCC5)ccc34)nn2)nc(N)n1` had an IC50 of 71.6 nM.

Take `Cc1c(C#N)cccc1-c1cc(-c2cn(Cc3c[nH]c4cc(F)ccc34)nn2)nc(N)n1`: the Ratio IC50 in assay [3] stood at 8.8. For the same compound, the values for the IC50 in assay [1] and in assay [2] were 13.7 nM and 120 nM, respectively.

Regarding `Cc1c(C#N)cccc1-c1cc(-c2cn(Cc3c[nH]c4ccncc34)nn2)nc(N)n1`, the Ratio IC50 in assay [3] is 14.6. Further, the IC50 in assay [1] came out at 11.6 nM; in assay [2] it was 169 nM.

As for `Cc1c(C#N)cccc1-c1cc(-c2cn(Cc3c[nH]c4ccc(OC5CCCC5)cc34)nn2)nc(N)n1`, the Ratio IC50 in assay [3] is 0.3. Also, the IC50 in assay [1] stood at 349 nM; in assay [2], 97.4 nM.

As to `Cc1ccc2[nH]cc(Cn3cc(-c4cc(-c5cccc(C#N)c5C)nc(N)n4)nn3)c2c1`, the Ratio IC50 in assay [3] amounted to 2.4. Also, the IC50 in assay [1] came to 43.4 nM; in assay [2], 103 nM.

Turning to `Cc1c(C#N)cccc1-c1cc(-c2cn(Cc3c[nH]c4cccc(Cl)c34)nn2)nc(N)n1`, in assay [3], the Ratio IC50 is 0.5. Further, the IC50 in assay [1] was determined as 316 nM; in assay [2], 172 nM.

As to `Cc1c(C#N)cccc1-c1cc(-c2cn(Cc3csc4c3CCCC4)nn2)nc(N)n1`, the Ratio IC50 in assay [3] worked out at 0.1. In addition, the half-maximal inhibitory concentration (IC50) in assay [1] came out at 101 nM; in assay [2], 11.6 nM.

`Cc1c(C#N)cccc1-c1cc(-c2cn(Cc3cc4ccccc4[nH]3)nn2)nc(N)n1`: in assay [1], the concentration for half-maximal inhibition (IC50) worked out at 654 nM.

With `Cc1c(C#N)cccc1-c1cc(-c2cn(Cc3c[nH]c4cc(Cl)c(Cl)cc34)nn2)nc(N)n1`, the Ratio IC50 in assay [3] is 30.2. In addition, the IC50 worked out at 209 nM in assay [1] and 6320 nM in assay [2].

`Cc1c(C#N)cccc1-c1cc(-c2cn(Cc3cccc4[nH]ccc34)nn2)nc(N)n1`: the IC50 in assay [1] was > 100000 nM; in assay [2], 5820 nM.

For the compound `Cc1c(C#N)cccc1-c1cc(-c2cn(Cc3ccc4cc[nH]c4c3)nn2)nc(N)n1`, in assay [3], the Ratio IC50 was 3.2. In addition, the figures for the half-inhibitory concentration (IC50) in assay [1] and in assay [2] were 134 nM and 427 nM, respectively.

Take `Cc1c(C#N)cccc1-c1cc(-c2cn(Cc3c[nH]c4cc(Cl)ccc34)nn2)nc(N)n1`: the Ratio IC50 in assay [3] stood at 13.5. The figures for the 50% inhibitory concentration (IC50) in assay [1] and in assay [2] were 55.8 nM and 753 nM, respectively.

As to `Cc1c(C#N)cccc1-c1cc(-c2cn(Cc3cn(C)c4ccccc34)nn2)nc(N)n1`, the IC50 in assay [1] and in assay [2] was > 100000 nM in each case.

In the case of `Cc1c(C#N)cccc1-c1cc(-c2cn(Cc3c[nH]c4cnccc34)nn2)nc(N)n1`, the Ratio IC50 in assay [3] was found to be 172. For the same compound, the IC50 turned out to be 11.1 nM in assay [1] and 1910 nM in assay [2].

Regarding `Cc1c(C#N)cccc1-c1cc(-c2cn(Cc3c[nH]c4cccnc34)nn2)nc(N)n1`, in assay [1], half-maximal inhibition (IC50) was put at 3.6 nM.

`Cc1c(C#N)cccc1-c1cc(-c2cn(Cc3c[nH]c4ccccc34)nn2)nc(N)n1`: the Ratio IC50 in assay [3] amounted to 2.6. Also, the half-inhibitory concentration (IC50) in assay [1] worked out at 43.8 nM; in assay [2] it was 112 nM.

Consider `Cc1c(C#N)cccc1-c1cc(-c2cn(Cc3ccc4[nH]ccc4c3)nn2)nc(N)n1`, for which the Ratio IC50 in assay [3] stood at 23.5. In addition, the IC50 in assay [1] was found to be 43.1 nM; in assay [2], 1010 nM.

Regarding `COC(=O)c1ccc2[nH]cc(Cn3cc(-c4cc(-c5cccc(C#N)c5C)nc(N)n4)nn3)c2c1`, the Ratio IC50 in assay [3] came to 1.8. The IC50 in assay [1] is 38.2 nM; in assay [2], 70.2 nM.

For `Cc1c(C#N)cccc1-c1cc(-c2cn(Cc3c[nH]c4cc(C#N)ccc34)nn2)nc(N)n1`, the Ratio IC50 in assay [3] was found to be 93.2. In addition, the results for the IC50 in assay [1] and in assay [2] were 2.6 nM and 242 nM, respectively.

As for `Cc1ccc2c(Cn3cc(-c4cc(-c5cccc(C#N)c5C)nc(N)n4)nn3)c[nH]c2c1`, in assay [3], the Ratio IC50 turned out to be 6.7. The concentration for half-maximal inhibition (IC50) in assay [1] is 48.6 nM; in assay [2], 324 nM.

Take `Cc1c(C#N)cccc1-c1cc(-c2cn(Cc3c[nH]c4ccc(OC(C)C)cc34)nn2)nc(N)n1`: in assay [3], the Ratio IC50 is 0.7. Also, the figures for the IC50 in assay [1] and in assay [2] were 103 nM and 69.9 nM, respectively.

For the compound `COc1ncc(C2=CCOCC2)c2sc(NC(=O)N3CC[C@@]4(CCCOC4)C3)nc12` [MUVADENANT], the half-maximal inhibitory concentration (IC50) in assay [4] and in assay [5] was < 10 nM each time.

As for `Cc1c(C#N)cccc1-c1cc(-c2cn(Cc3c[nH]c4cc(OC(C)C)ccc34)nn2)nc(N)n1`, the Ratio IC50 in assay [3] stood at 126. For the same compound, the concentration for half-maximal inhibition (IC50) was determined as 30.6 nM in assay [1] and 3850 nM in assay [2].

For `Cc1c(C#N)cccc1-c1cc(-c2cn(Cc3c[nH]c4ccc(Cl)cc34)nn2)nc(N)n1`, the Ratio IC50 in assay [3] was 5.4. The IC50 in assay [1] was 45.4 nM; in assay [2], 244 nM.
